Data on four compounds can be found in patent publication US20170296540A1, “METHODS OF TREATING FRIEDREICH'S ATAXIA USING SRC INHIBITORS” (Fratagene Therapeutics S.R.L., priority 2014, published 2017).

Entries after “also recorded” stand apart in the source; their conditions may differ. Read-outs that look alike come from different tables or passages of the source.

The test system of data set [1] is HEK293^FXN cells stably expressing a single copy of wild-type frataxin. The data set is described as follows: Frataxin precursor accumulation with Src inhibitor, ubiquitin competing molecule or combination in HEK293^FXN cells. The conditions noted are these: F166 1 uM; 24 h.
Method: Data are representative of four independent experiments. […] The frataxin expression was normalized with tubulin, and frataxin expression in non-treated cells (−) was set to 1. Data represent the mean±1 S.E.M. from four independent experiments.
The frataxin precursor (FXN) and tubulin expression (TUB) were analyzed by western blot (FIG. 7A). The data shown are representative of four independent experiments.
The amount of frataxin accumulation was quantified by densitometry (FIG. 7B). Frataxin expression was normalized with tubulin, and frataxin expression in non-treated cells (−) was set to 1. The data shown represent the mean±1 S.E.M. from four independent experiments.
Data set [2] concerns HEK293^FXN cells stably expressing single copy of wild type frataxin. The data set is described as follows: Frataxin accumulation (western blot, densitometry) in HEK293^FXN cells expressing wild type frataxin. Format: cell-based, human. To be noted: 1, 3 and 10 μM, 24 h. The method, then:
(§1) FIG. 4. […] HEK293^FXN cells stably expressing single copy of wild type frataxin (WT) or non-phosphorylable Y118F frataxin mutant (Y118F) were treated for 24 h with 1, 3, and 10 μM of either Src inhibitor SU6656, PP2, dasatinib, bosutinib, saracatinib, or vehicle (−). […] Data are representative of three independent experiments. The precursor (P), intermediate (I) and mature (M) frataxin forms are indicated. Right panels: Densitometric quantification of frataxin accumulation for the corresponding inhibitor.
(§2) HEK-293 Flp-In cells (Life Technologies) are HEK-293 variants allowing the stable and isogenic integration and expression of a transfected gene. The HEK-293 clone stably expressing frataxin^1-210 (Condo et al. 2007) and the clone stably expressing frataxin^V118F were generated by mutagenesis as described below. HEK-293 Flp-In cells were maintained in DMEM supplemented with 10% FBS.
(§3) Densitometric analyses were performed using ImageLab software (Biorad).
(§4) Because phosphorylation on Y118 promotes ubiquitination and that preventing ubiquitin-dependent degradation increases frataxin levels (Rufini et al. 2011), the effects of frataxin phosphorylation by Src kinase were tested for enhancement of frataxin expression.

Data set [3] deals with HEK293^FXN cells stably expressing non-phosphorylable Y118F frataxin mutant. The data set is described as follows: Frataxin accumulation (western blot, densitometry) in HEK293^FXN cells expressing Y118F frataxin mutant. In kind it is cell-based, human. The conditions noted are these: 1, 3 and 10 μM, 24 h. The procedure: as §1, §2, §3, §4
(Immunoblotting shows a protein as a band on a membrane.)

In data set [4] the test system is endogenous frataxin in HEK293 cells. The data set is described as follows: Endogenous frataxin accumulation in HEK293 cells (western blot, densitometry). In kind it is cell-based, human. The conditions noted are these: 1, 3 and 10 μM, 24 h.
Method: Human HEK293 cells were treated with 1, 3 and 10 μM of SU6656, PP2, and dasatinib Src inhibitor or vehicle (−) for 24 h. Frataxin (FXN) and tubulin expression (TUB) was analyzed by western blot. Data are representative of three independent experiments. […] Right panels: densitometric quantification of frataxin accumulation. Frataxin expression was normalized with tubulin and frataxin expression in non-treated cells (NT) set to one. Data represent the mean±1 S.E.M. from three different independent experiments performed for each inhibitor in the left panels.
Human embryonic kidney HEK-293 cells were cultured in Dulbecco's modified Eagle's medium (DMEM) supplemented with 10% fetal bovine serum (FBS). […]
Cell lysates (100 μg) were resolved by SDS-PAGE and analyzed by immunoblot with specific mAb anti-frataxin clone 1G2 and STR-23 (Immunological Sciences, Rome, Italy) mAb anti-tubulin (Sigma), mAb anti-actin (Sigma), mAb anti-phosphotyrosine (Millipore), pAb anti-phospho-Src (Life Technologies), mAb anti-GFP (Takara), secondary antibody horseradish peroxidase-conjugated goat anti-mouse (Pierce), secondary antibody horseradish peroxidase-conjugated mouse anti-rabbit (Pierce), secondary antibody horseradish peroxidase-conjugated goat anti-Fc anti-mouse (Thermo Scientific) using ECL system detection (GE Healthcare Europe GmbH, Milan, Italy). […]
In data set [5] the test system is FRDA patient-derived B cells (GM16214).
Method: (§5) Left panels: mature frataxin (FXN) and tubulin expression (TUB) was analyzed by western blot. Data are representative of three independent experiments. Right panels: densitometric quantification of frataxin accumulation. Frataxin expression was normalized with tubulin and frataxin expression in non-treated cells (NT) set to one. Data represent the mean±1 S.E.M. from three different independent experiments performed for each inhibitor in the left panels.
(§6) Total cell extracts were prepared in ice-cold modified RIPA buffer (10 mM sodium phosphate pH 7.2, 150 mM NaCl, 1% Na deoxycholate, 0.1% SDS, 1% Nonidet P-40, 2 mM EDTA) or IP buffer (50 mM Tris-HCl, pH 7.5, 150 mM NaCl, 1% Nonidet P-40, 5 mM EDTA, 5 mM EGTA) supplemented with complete protease inhibitor cocktail (Roche Diagnostics, Milan, Italy), sodium orthovanadate 1 mM and NaF 25 mM to inhibit phosphatases.
(§7) Cell lysates (100 μg) were resolved by SDS-PAGE and analyzed by immunoblot with specific mAb anti-frataxin clone 1G2 and STR-23 (Immunological Sciences, Rome, Italy) mAb anti-tubulin (Sigma), mAb anti-actin (Sigma), mAb anti-phosphotyrosine (Millipore), pAb anti-phospho-Src (Life Technologies), mAb anti-GFP (Takara), secondary antibody horseradish peroxidase-conjugated goat anti-mouse (Pierce), secondary antibody horseradish peroxidase-conjugated mouse anti-rabbit (Pierce), secondary antibody horseradish peroxidase-conjugated goat anti-Fc anti-mouse (Thermo Scientific) using ECL system detection (GE Healthcare Europe GmbH, Milan, Italy).
(§8) For treatment longer than 24 h, inhibitors were added every 2 days, and each time lymphoblasts were centrifuged and resuspended at 400.000 cells/ml with the indicated concentration of inhibitor.
(§9) FRDA lymphoblasts were exposed to these inhibitors for different time periods.
Data set [6] has the same test system. The data set is described as follows: Frataxin accumulation in frataxin-deficient FRDA patient-derived B cells (western blot, densitometry). To be noted: for frataxin accumulation in frataxin-deficient cells (mature frataxin): FRDA patient-derived B cells, 10 μM, time course 24 h to 72 h.
Method: as §5, §6, §7, §8, §9
The next data set concerns nude mice. To be noted: mouse, in vivo, po; cited from earlier work.

Regarding `COc1ccccc1C(=O)N/N=C(\C)c1ccc2c(c1)Nc1ccccc1S2` [F166], the “frataxin precursor accumulation, single agent” value in data set [1] was “accumulate frataxin precursor”.

`CC(C)(C)n1nc(-c2ccc(Cl)cc2)c2c(N)ncnc21` [PP2]: the results for the “frataxin accumulation (frataxin normalized with tubulin, non-treated cells set to one)” value in data set [2] and in data set [3] were “upregulate wild type frataxin” and “not the non-phosphorylable Y118F frataxin mutant”, respectively. In data set [4], the endogenous frataxin accumulation entry is listed as “promote endogenous frataxin accumulation”. The tolerability in cells entry in data set [5] is recorded as “best tolerated”. In addition, the “frataxin accumulation in frataxin-deficient cells (mature frataxin)” value in data set [6] is listed as “promote frataxin accumulation”.

For `CN(C)S(=O)(=O)c1ccc2c(c1)/C(=C/c1cc3c([nH]1)CCCC3)C(=O)N2` [SU6656], the results for the “frataxin accumulation (frataxin normalized with tubulin, non-treated cells set to one)” value in data set [2] and in data set [3] were “upregulate wild type frataxin” and “not the non-phosphorylable Y118F frataxin mutant”, respectively. The endogenous frataxin accumulation result in data set [4] is given as “promote endogenous frataxin accumulation”. For the same compound, the tolerability in cells entry in data set [5] is “best tolerated”. Besides, the “frataxin accumulation in frataxin-deficient cells (mature frataxin)” value in data set [6] is listed as “further accumulated within 72 h; also recorded: promote frataxin accumulation”.

`Cc1nc(Nc2ncc(C(=O)Nc3c(C)cccc3Cl)s2)cc(N2CCN(CCO)CC2)n1` [dasatinib]: in the data set with nude mice, the toxicity of regimen entry was “no toxicity”. In addition, in data set [6] (FRDA patient-derived B cells (GM16214)), the tolerability in cells entry is recorded as “best tolerated”.
